Reference: publication PMC10525516, “Novel NADPH Oxidase-2 Inhibitors as Potential Anti-Inflammatory and Neuroprotective Agents” (Antioxidants, 2023)
Where a name gives a salt, the structure may show the parent alone. Each block holds one compound with its values, some of them ahead of it.

Assays:
dHL60 cells = assay: Cell Titer Glo 2.0 cytotoxicity (ATP) assay in PMA-stimulated dHL60 cells; format: cell-based, human; details: for IC50: Homo sapiens, Cell Titer Glo 2.0, PMA-stimulated dHL60 cells, 2.5 h with inhibitor, unit not printed in Table 3, taken from text, read-out: IC50, Viability Assay
Procedure: The cytotoxicity of the inhibitors was tested by measuring the amount of ATP in the wells containing PMA-stimulated dHL60 cells and the candidate inhibitors. Cells were prepared as described for the plate reader-based measurements for H2O2, except that the cells were maintained with the inhibitors in a CO2-free incubator at 37 °C for 2.5 h to mirror the conditions during the fluorescence-based monitoring of H2O2 described above. After incubation, cells (100 µL/well) were transferred to white 96-well plates (Greiner, Kremsmünster, Austria), and the total cellular ATP amount was determined using the Cell Titer Glo 2.0 (Promega) cytotoxicity assay (100 µL/well) by measuring the luminescence intensity using a Beckman Coulter DTX880 plate reader.

Nox2 [1] = biological target: T1, Nox2 (Homo sapiens, UniProt P04839); assay: CBA probe assay of H2O2 production by PMA-activated dHL60 cells; format: cell-based; details: for Nox2 inhibitory potency (SAR statement): replacement of the indole moiety, data not shown; for IC50: PMA (1 µM)-activated dHL60 cells, 30 min preincubation with inhibitor, read-out: IC50, inhibition of H2O2 production, CBA Assay; for Nox2 inhibitory activity: tested at concentrations of up to 50 µM
T1 construct: endogenous in cells
T1 sequence (P04839 2-570 limits assumed): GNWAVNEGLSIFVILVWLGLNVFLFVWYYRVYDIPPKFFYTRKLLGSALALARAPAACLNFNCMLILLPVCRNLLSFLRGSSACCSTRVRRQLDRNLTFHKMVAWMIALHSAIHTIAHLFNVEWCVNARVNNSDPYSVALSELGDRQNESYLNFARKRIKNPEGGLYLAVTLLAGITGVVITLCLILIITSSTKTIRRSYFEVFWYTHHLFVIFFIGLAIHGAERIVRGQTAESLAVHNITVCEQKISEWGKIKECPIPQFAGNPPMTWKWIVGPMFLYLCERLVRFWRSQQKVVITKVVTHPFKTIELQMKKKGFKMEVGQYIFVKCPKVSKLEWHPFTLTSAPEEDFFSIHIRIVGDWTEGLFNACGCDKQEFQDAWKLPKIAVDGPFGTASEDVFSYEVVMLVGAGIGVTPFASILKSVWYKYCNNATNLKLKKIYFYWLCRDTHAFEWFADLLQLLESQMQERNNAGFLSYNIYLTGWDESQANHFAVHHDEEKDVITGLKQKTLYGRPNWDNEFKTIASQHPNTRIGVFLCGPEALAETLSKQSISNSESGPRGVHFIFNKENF
T1 sequence (P13498 2-195 partner limits assumed): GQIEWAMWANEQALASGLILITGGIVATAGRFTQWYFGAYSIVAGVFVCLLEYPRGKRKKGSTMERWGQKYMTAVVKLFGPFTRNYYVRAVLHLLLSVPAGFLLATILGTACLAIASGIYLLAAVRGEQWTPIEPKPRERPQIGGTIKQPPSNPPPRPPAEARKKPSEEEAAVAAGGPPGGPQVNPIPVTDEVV
Procedure: (§1) Human promyelocytic leukemia HL60 cells (Sigma-Aldrich) were grown in RPMI 1640 medium (Gibco, 11875-093, Billings, MT, USA) supplemented with 10% FBS (Omega Scientific (Tarzana, CA, USA)), 100 units/mL penicillin, and 100 µg/mL streptomycin, and were incubated at 37 °C and 5% carbon dioxide (CO2). For differentiation to neutrophil-like cells, HL60 cells were pelleted and resuspended in fresh media containing 1 µM of all trans-retinoic acid and incubated for four to five days. Nox2 activation was achieved by treating differentiated HL60 (dHL60) cells with 1 µM PMA [24]. Human leukemia monocytic cells, THP-1, were grown in RPMI 1640 medium + GlutaMAX^TM (Gibco, 61870-036) and supplemented with 10% FBS, 10 mM HEPES, and 1 mM sodium pyruvate and incubated at 37 °C in 5% CO2 environment. To induce differentiation into macrophages, THP-1 cells were treated with PMA (100 ng/mL) for 48 h. To test the efficacy of Nox2 inhibitors, treatment was performed with or without the inhibitor, along with PMA [35].
(§2) Plate reader-based analyses of the production of O2^•− and H2O2 by PMA-activated dHL60 cells were performed according to a published protocol with minor modifications. Briefly, for the treatment of dHL60 cells with different concentrations of the compounds, 0.5 mL deep-well 96-well plates were used to dispense and store aliquots of their 10 mM DMSO solutions. Using a Multidrop™ PicoIT dispenser (Thermo Scientific), different volumes of the solutions of candidate Nox inhibitors (10 or 50 mM in DMSO) were injected into the bottom of 0.5 mL V-bottom 96-well plates; then, they were sealed with aluminum foil (VWR, Batavia, IL, USA) using a semiautomatic thermal sealer (BT LabSystems, St. Louis, MO, USA) and stored at −20 °C to reduce freeze-thawing the solutions. The plates with inhibitors were allowed to come to room temperature before the addition of the cell suspensions. dHL60 cells were pelleted and resuspended in HBSS (Invitrogen, Waltham, MA, USA) supplemented with 25 mM HEPES (pH 7.4) and 100 µM DTPA to a cell density of 2 × 10^5 cells/mL. dHL60 cells were added to the V-bottom plates at a volume of 210 µL/well. Next, cells were incubated with inhibitors for 30 min at 37 °C in a CO2-free incubator under ambient oxygen and then transferred to black, clear-bottom 96-well plates (200 µL/well) after incubation. Freshly prepared PMA plus probe solutions in HBSS (5× concentrated, 50 µL/well) included PMA (5 µM) with CBA (500 µM) or with Amplex Red (250 µM) plus HRP (0.5 U/mL) for H2O2 detection, or with HE (50 µM) plus DNA (0.5 mg/mL) for O2^•− detection. Once probes + PMA were added, plates were sealed with sealing film and immediately placed in the pre-warmed plate readers (37 °C). Fluorescence intensities were monitored kinetically from the bottom of the plates every 1.3 min for a period of 2 h using Beckman Coulter (Brea, CA, USA) DTX880 and BMG Labtech (Ortenberg, Germany) FLUOstar Omega plate readers. DMSO alone and DPI (10 µM) were used as negative and positive controls, respectively. […] The IC50 values were determined using at least five independent measurements, each consisting of technical quadruplicates per concentration.

THP-1 cells = assay: qRT-PCR mRNA expression of Nox2 subunits and inflammatory mediators in PMA-treated THP-1 cells; format: cell-based, human; details: 3 µM, 48 h with PMA 100 ng/mL
Procedure: as §1
mRNA expression analysis was performed as previously described. Briefly, THP-1 cells were treated with PMA (100 ng/mL) with or without the Nox2 inhibitor TG15-132 (3.0 µM) for 48 h. RNA extraction was done using the Quick-RNA miniprep kit (cat. no. R1055, Zymo Research, Irvine, CA, USA) and followed by cDNA synthesis using the qScript cDNA superMix kit (cat. no. 84035, Quantabio, Beverly, MA, USA). Quantitative real-time PCR was performed using specific primers designed to amplify target genes (Table 2). Data obtained were analyzed and converted into fold changes in expression with respect to vehicle-treated cells.

[2] = Short-term (seven day) in vivo toxicity in mice; parameters: species or system C57BL/6 mice; details: 20 mg/kg, seven days, Figure 9B
Procedure: All animal experiments were performed according to protocols and guidelines approved by the Emory University Animal Care and Use Committee. The in vivo toxicity of TG15-132 was assessed using C57BL/6 mice (cat. no. 027, Charles River Laboratories, Wilmington, MA, USA). Animals were injected daily (i.p.) with saline, vehicle (DMSO 10%, PEG400 30%, water 60%), or 20 mg/kg of TG15-132 in vehicle for seven days, with body weight recorded each day. At the end of treatment, organs were harvested to study organ weight loss, and blood was collected from each mouse via cardiac puncture, and serum was isolated. Serum was analyzed for kidney function using blood urea nitrogen and creatinine, liver function using alanine amino transferase, and tissue damage using lactate dehydrogenase.

Nox2 [3] = biological target: T1, Nox2; assay: Amplex Red/HRP assay of H2O2 production by PMA-activated dHL60 cells; format: cell-based; details: for IC50: PMA (1 µM)-activated dHL60 cells, 30 min preincubation, read-out: IC50, inhibition of H2O2 production, Amplex Red Assay
Procedure: as §1, §2

[4] = In vivo pharmacokinetics / brain penetration, species not specified (rodent models); details: brain; species and dose not stated; data not shown; read-out: brain-to-plasma ratio
Source text: Rapid metabolism and the inability to cross the BBB represent major obstacles in the application of bioactive agents in neurodegenerative diseases. Based on the premise that Nox2 plays a major role in oxidative damage and exacerbates neurodegenerative diseases, we envision applications of brain-permeable Nox2 inhibitors in mechanistic studies in vivo, and, long-term, in the development of novel therapeutic strategies. Therefore, we performed in vivo pharmacokinetics studies to determine the time profile of plasma concentration and accumulation of TG15-132 in the brain tissue of Sprague Dawley rats and C57BL6 mice.

Nox2 [5] = tested on: Nox2; parameters: method as in PMID 22726689; details: library of >200,000 compounds; cited from earlier work

SMILES: c1ccc2c(c1)[I+]c1ccccc1-2 [DPI, Diphenyleneiodonium chloride, reference compound]
cytotoxic effects (dHL60 cells; 10 µM, Cell Titer Glo 2.0): did not show any cytotoxic effects
inhibitory activity (positive control) (Nox2 [1]; 10 µM): consistently showed inhibitory activity

SMILES: CC(C)n1cc(-c2ccc3c(c2)N(C)CC3)c2c(NS(=O)(=O)c3ccn(C)n3)ccnc21 [GSK 2795039, reference compound]
expression of TNF compared with PMA-treated cells (Figure 7B) (THP-1 cells): increased
mRNA expression vs PMA-treated cells, additional experiment (Figure 7B) (THP-1 cells): did not reduce the expression of Nox2 components and inflammatory mediators

SMILES: CN(C)CCCn1c(SCCc2ccccn2)nc2ccc(Cl)cc2c1=O [TG15-124]
Nox2 inhibitory potency (SAR statement) (Nox2 [1]): significant loss in Nox2 inhibitory potency

SMILES: CN(C)CCCn1c(SCCc2ccccn2)nc2ccc(F)cc2c1=O [TG15-131]
Nox2 inhibitory potency (SAR statement) (Nox2 [1]): significant loss in Nox2 inhibitory potency

SMILES: CN(C)CCCn1c(SCCc2c[nH]c3ccccc23)nc2ccc(F)cc2c1=O [TG15-132•HCl]
liver or kidney function, tissue damage (serum BUN, CREAT, ALT, LDH) [2]: did not lead to a negative effect

IC50 (Nox2 [3]): 4.9 ± 2.3 µM
Kp [4]: > 23
IC50 (Nox2 [1]): 3.1 ± 1.4 µM
SMILES: CN(C)CCCn1c(SCCc2c[nH]c3ccccc23)nc2ccc(Cl)cc2c1=O [TG15-139]
IC50 (dHL60 cells): 14.1 ± 1.7 µM
cell viability at concentrations showing Nox2 inhibitory potency (dHL60 cells; dHL60 cells, Figure 3D,E): no decrease in cell viability

IC50 (Nox2 [3]): 67.8 ± 2.6 µM
fold less potency than TG17-57 in the Amplex Red assay (Nox2 [3]; relative to TG17-57): about 7 fold
IC50 (Nox2 [1]): 23.6 ± 18.1 µM
fold less potency than TG17-57 in the CBA assay (Nox2 [1]; relative to TG17-57): about 3 fold
SMILES: CC(C)N1CCN(C(=O)CCCn2c(SCCc3c[nH]c4ccccc34)nc3ccc(F)cc3c2=O)CC1 [TG15-293]
IC50 (dHL60 cells): 38.3 ± 7.5 µM

Nox2 inhibitory potency (SAR statement) (Nox2 [1]): eliminated potency
SMILES: CN(C)CCCSc1nc2ccc(F)cc2c(=O)n1CCCN(C)C [TG17-55]

IC50 (Nox2 [3]): 7.8 ± 4 µM
IC50 (Nox2 [1]): 5.3 ± 0.6 µM
SMILES: CCN1CCN(CCCn2c(SCCc3c[nH]c4ccccc34)nc3ccc(F)cc3c2=O)CC1 [TG17-56]
IC50 (dHL60 cells): 16.7 ± 2.5 µM

IC50 (Nox2 [3]): 9.2 ± 0.4 µM
IC50 (Nox2 [1]): 7 ± 2.8 µM
SMILES: CC(C)N1CCN(CCCn2c(SCCc3c[nH]c4ccccc34)nc3ccc(F)cc3c2=O)CC1 [TG17-57]
IC50 (dHL60 cells): 20.7 ± 5 µM

Nox2 inhibitory activity (Nox2 [1]): did not show Nox2 inhibitory activity
SMILES: COc1cc(C(C)=O)ccc1O [apocynin, reference compound]

SMILES: COc1cc(C(C)=O)cc(-c2cc(C(C)=O)cc(OC)c2O)c1O [diapocynin, reference compound]
Nox2 inhibitory activity (Nox2 [1]): did not show Nox2 inhibitory activity

SMILES: O=c1c2ccccc2[se]n1-c1ccccc1 [ebselen]
Nox2 inhibition in cell-free HTS (Nox2 [5]): modest Nox2 inhibitors
